{"source": "patent US20090092553A1", "about": "“MONOCARBOXYLATE TRANSPORTERS EXPRESSED IN CANCER CELLS” (Xenoport,Inc., priority 2003, published 2009)", "key": {"[1]": {"target": "T1, MCT1 (Homo sapiens, UniProt P53985)", "T1 sequence (P53985 1-500)": "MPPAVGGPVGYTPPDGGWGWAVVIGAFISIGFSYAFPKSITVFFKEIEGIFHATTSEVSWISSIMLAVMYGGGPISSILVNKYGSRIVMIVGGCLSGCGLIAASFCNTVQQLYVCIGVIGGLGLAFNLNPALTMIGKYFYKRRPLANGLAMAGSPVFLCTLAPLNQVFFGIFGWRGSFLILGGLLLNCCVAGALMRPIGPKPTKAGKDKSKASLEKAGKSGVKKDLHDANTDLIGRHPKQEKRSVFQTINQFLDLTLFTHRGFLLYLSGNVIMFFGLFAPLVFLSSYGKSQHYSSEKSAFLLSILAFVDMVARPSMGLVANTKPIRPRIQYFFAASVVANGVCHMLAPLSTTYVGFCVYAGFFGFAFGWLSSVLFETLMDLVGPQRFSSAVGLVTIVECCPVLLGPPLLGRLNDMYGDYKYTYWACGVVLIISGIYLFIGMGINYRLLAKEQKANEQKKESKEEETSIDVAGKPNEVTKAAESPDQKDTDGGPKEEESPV", "experiment": "HEK cell intracellular pH (BCECF) / phloretin inhibition assay", "assay_type": "cell-based", "settings": "HEK cells; for effect on the intracellular pH response to lactate: applied together with lactate", "source_text": "Because MCT1 transports both the carboxylate anion and the corresponding proton, a pH measuring assay was developed to measure net transport of protons into the cytoplasm. Intracellular pH can be measured by a pH-sensitive fluorescent dye such as BCECF. […] In the phloretin inhibition assay, the HEK cells are first exposed to a plurality of solutions containing various concentrations of the test compound (in FIG. 3, the model test compound is lactate) and then to the same solutions to which have been added a set (0.25 mM) concentration of phloretin. Thus, FIG. 3 is a graph of lactate concentration ([L]) versus the percent of maximum pH change found with administration of the highest concentration of the test compound (lactate) alone. […] This is because MCT1 co-transports lactate and a proton into the HEK cells, causing their internal pH to decrease. This pH lowering effect is shown by the characteristic reverse-S-shaped dose response upper curve in FIG. 3. When the cells are exposed to the solutions containing both lactate and phloretin, the phloretin inhibits the lactate uptake by MCT1 and there is little pH change in the cells, as shown by the relatively flat lower curve in FIG. 3. The phloretin inhibition assay can also be used to determine those carboxylic acids that are actively transported MCT substrates from those that are only passively absorbed across the cell membrane. In the latter case, when a passive absorbed acid is applied to HEK cells, there is an intracellular acidification, which occurs both with and without phloretin.\nFIG. 4 is a graph of 2-TPGA concentration ([2-TPGA]) versus the relative percent decrease in intracellular pH compared to a standard decrease in intracellular pH caused by exposure of the cells to 20 mM lactate solution. When 0.25 mM phloretin was applied to these cells in addition to 2-TPGA, MCT1 transport was blocked and no significant pH change was detected.\nFIG. 5 is a graph of sulfasalazine concentration ([sulfasalazine]) versus the relative percent decrease in intracellular pH compared to a standard decrease in intracellular pH caused by exposure of the cells to 20 mM lactate solution."}, "[2]": {"target": "T2, MCT1 (Homo sapiens, UniProt P53985, D490E)", "T2 sequence (P53985 1-500 D490E)": "T1 sequence (P53985 1-500) with D490E", "experiment": "Xenopus oocyte ROMK electrophysiological pH assay, MCT1", "assay_type": "cell-based"}, "[3]": {"target": "T1, MCT1", "settings": "cited from earlier work"}, "[4]": {"target": "T3, MCT4 (Homo sapiens, UniProt O15427)", "T3 sequence (O15427 1-465)": "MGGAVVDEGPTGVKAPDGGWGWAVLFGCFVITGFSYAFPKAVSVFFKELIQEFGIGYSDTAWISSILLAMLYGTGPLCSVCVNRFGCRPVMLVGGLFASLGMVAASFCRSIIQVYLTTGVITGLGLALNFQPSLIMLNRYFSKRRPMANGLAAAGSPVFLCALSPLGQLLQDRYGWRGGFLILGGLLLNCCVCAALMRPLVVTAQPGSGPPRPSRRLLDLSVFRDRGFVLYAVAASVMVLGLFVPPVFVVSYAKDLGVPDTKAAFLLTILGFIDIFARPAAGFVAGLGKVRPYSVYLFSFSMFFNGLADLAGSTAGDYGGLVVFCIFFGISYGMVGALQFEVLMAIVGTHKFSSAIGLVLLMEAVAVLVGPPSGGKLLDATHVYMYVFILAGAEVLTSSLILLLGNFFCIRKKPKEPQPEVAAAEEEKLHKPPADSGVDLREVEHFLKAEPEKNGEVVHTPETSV", "settings": "cited from earlier work"}, "[5]": {"target": "T3, MCT4", "experiment": "Xenopus oocyte ROMK electrophysiological pH assay, MCT4", "assay_type": "cell-based", "parameters": "The complete open reading frame was cloned into a Xenopus oocyte expression plasmid; expressed in transfected cells; host or cells: Xenopus oocytes injected with cRNA"}}, "note": "Residue numbers refer to the chain shown, from its start.", "data": [{"smiles": "O=C(O)C(=O)c1cccs1", "note": "[Compound 2-TPGA, 2-thiophene glyoxylic acid]", "values": [{"measurement": "substrate status from intracellular pH change with and without 0.25 mM phloretin", "setting": "[1]; FIG. 4", "result": "substrate for, and is actively transported by, MCT1"}]}, {"smiles": "CC(O)C(=O)O", "note": "(centres unmarked) [lactate]", "values": [{"measurement": "intracellular pH change when applied alone", "setting": "[1]", "result": "dose-dependent intracellular acidification"}, {"measurement": "effect on ROMK potassium current", "setting": "[2]; oocytes co-expressing ROMK and MCT1, 10 mM lactate solution", "result": "strong inhibition of the potassium current"}, {"measurement": "affinity for lactate", "setting": "[3]", "result": "~2", "unit": "mM"}, {"measurement": "affinity for lactate", "setting": "[4]", "result": "~40", "unit": "mM"}, {"measurement": "effect on ROMK potassium current", "setting": "[5]; oocytes co-expressing ROMK and MCT4, 10 mM lactate solution", "result": "strong inhibition of the potassium current"}]}, {"smiles": "O=C(CCc1ccc(O)cc1)c1c(O)cc(O)cc1O", "note": "[phloretin]", "values": [{"measurement": "intracellular pH change when applied alone", "setting": "[1]", "result": "does not cause an intracellular pH change"}, {"measurement": "effect on the intracellular pH response to lactate", "setting": "[1]", "result": "completely blocks the lactate response"}, {"measurement": "effect of co-application with lactate on the potassium current", "setting": "[2]; oocytes co-expressing ROMK and MCT1, 350 μM phloretin and 10 mM lactate", "result": "completely blocks the effect of lactate on the potassium current"}, {"measurement": "effect of co-application with lactate on the potassium current", "setting": "[5]; oocytes co-expressing ROMK and MCT4, 350 μM phloretin and 10 mM lactate", "result": "completely blocks the effect of lactate on the potassium current"}]}, {"smiles": "O=C(O)c1cc(/N=N/c2ccc(S(=O)(=O)Nc3ccccn3)cc2)ccc1O", "note": "[sulfasalazine]", "values": [{"measurement": "effect on the intracellular pH response to lactate", "setting": "[1]", "result": "inhibitor of MCT1"}]}]}
